The text below walks through data of ChEMBL document CHEMBL5634123, “Design and synthesis of 1H-benzo[d]imidazole selective HDAC6 inhibitors with potential therapy for multiple myeloma” (Eur J Med Chem, 2023).

The source made the active and inactive calls. The calls are words filed in the database; no cut-off is given here.

Series [1] concerns RPMI-8226. Kind of series: Antitumor activity against human RPMI-8226 cells xenografted in Balb/c nude mouse assessed as ratio of tumor to control at 40 mg/kg, po qd for 21 days administered consecutively relative to control. The class given is functional. The note with it: time 21 day.
In series [2] the test system is RPMI-8226. Kind of series: Upregulation of Ac-alpha-tubulin expression in human RPMI-8226 cells at 0.1 uM incubated for 24 hrs by Western blot analysis. The class given is functional, cell-based. A general note: In western blotting, separated proteins are transferred to a membrane and probed.
Series [3] is described as follows: Volume of distribution at steady state in mouse at 1 mg/kg, iv. The class given is ADME, organism-based. The settings on record: in vivo, read-out: Vdss.
In series [4] the test system is RPMI-8226. Kind of series: Induction of cell cycle arrest at G1 phase in human RPMI-8226 cells at 2.5 uM incubated for 24 hrs by PI staining based flow cytometry (reference value: 19.2 %). The class given is functional. For orientation: In flow cytometry, cells or beads pass a laser one at a time.
In series [5] the test system is RPMI-8226. Kind of series: Induction of apoptosis in human RPMI-8226 cells assessed as viable cells at 0.5 uM incubated for 24 hrs by Annexin V-FITC/PI staining based flow cytometry (reference value: 90.98 %). The settings on record: read-out: Activity. The class given is functional.
For series [6], the system named is RPMI-8226. Kind of series: Induction of apoptosis in human RPMI-8226 cells assessed as late apoptotic cells at 0.1 uM incubated for 24 hrs by Annexin V-FITC/PI staining based flow cytometry (reference value: 2.78 %). The class given is functional.
Series [7] has as its target T1, Histone deacetylase 8 (Homo sapiens, UniProt Q9BY41).
T1 sequence (Q9BY41 whole entry): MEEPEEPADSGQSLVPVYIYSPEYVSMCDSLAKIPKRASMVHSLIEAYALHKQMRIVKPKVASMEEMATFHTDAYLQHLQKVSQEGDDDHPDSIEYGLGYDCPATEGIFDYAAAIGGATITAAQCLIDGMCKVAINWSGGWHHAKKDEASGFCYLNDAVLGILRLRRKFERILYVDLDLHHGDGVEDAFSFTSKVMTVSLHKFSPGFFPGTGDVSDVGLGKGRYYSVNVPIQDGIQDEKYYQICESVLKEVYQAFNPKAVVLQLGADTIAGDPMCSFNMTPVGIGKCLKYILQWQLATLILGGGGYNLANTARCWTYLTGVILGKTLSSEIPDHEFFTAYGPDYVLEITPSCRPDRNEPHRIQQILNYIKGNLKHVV
Kind of series: Inhibition of HDAC8 (unknown origin) preincubated for 10 mins followed by substrate addition by fluorescence based assay.

Series [8] deals with RPMI-8226. Kind of series: Induction of apoptosis in human RPMI-8226 cells assessed as late apoptotic cells at 2.5 uM incubated for 24 hrs by Annexin V-FITC/PI staining based flow cytometry (reference value: 2.78 %). The class given is functional.
The subject of series [9] is RPMI-8226. Kind of series: Induction of cell cycle arrest at G1 phase in human RPMI-8226 cells at 0.5 uM incubated for 24 hrs by PI staining based flow cytometry (reference value: 19.2 %). The class given is functional.
Series [10] relates to RPMI-8226. Kind of series: Upregulation of Ac-H3 expression in human RPMI-8226 cells at 0.1 to 0.5 uM incubated for 24 hrs by Western blot analysis. The class given is functional, cell-based. The note with it: dose 0.1-0.5 µM.
Series [11] deals with Histone deacetylase 2 (Homo sapiens, UniProt Q92769). Kind of series: Inhibition of HDAC2 (unknown origin) preincubated for 10 mins followed by substrate addition by fluorescence based assay.
Series [12] deals with RPMI-8226. Kind of series: Induction of apoptosis in human RPMI-8226 cells assessed as early apoptotic cells at 0.5 uM incubated for 24 hrs by Annexin V-FITC/PI staining based flow cytometry (reference value: 5.34 %). The class given is functional.

Chain of Histone deacetylase 2 (Q92769 whole entry): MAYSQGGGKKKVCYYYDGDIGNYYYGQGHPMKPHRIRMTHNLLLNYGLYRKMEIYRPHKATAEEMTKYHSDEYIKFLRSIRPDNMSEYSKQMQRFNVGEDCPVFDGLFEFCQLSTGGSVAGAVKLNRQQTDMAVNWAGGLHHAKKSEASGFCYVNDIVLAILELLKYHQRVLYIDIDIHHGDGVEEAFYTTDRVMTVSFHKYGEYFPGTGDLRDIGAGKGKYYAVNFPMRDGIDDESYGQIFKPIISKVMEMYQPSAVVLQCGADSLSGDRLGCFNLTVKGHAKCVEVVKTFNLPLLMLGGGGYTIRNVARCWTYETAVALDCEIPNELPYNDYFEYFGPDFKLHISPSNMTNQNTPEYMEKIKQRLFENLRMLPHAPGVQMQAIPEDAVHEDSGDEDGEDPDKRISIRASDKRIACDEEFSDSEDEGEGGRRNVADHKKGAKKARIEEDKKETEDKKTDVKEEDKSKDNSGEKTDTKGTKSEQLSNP

As to `Cn1c([C@@H](Cc2ccccc2)NCc2ccccc2)nc2cc(C(=O)NO)ccc21`, the T/C in series [1] came to 34.8%. Further, the result in [2] and in series [10] was inactive. Also, the Vd in series [3] was found to be 2.29 L/kg. Further, the Activity in series [4] stood at 26.8%; in series [6] it was 4.28%; in series [8] it was 4.26%; in series [9], 24.5%; in [12], 14.04%. Also, the viability at 0.5 µM in [5] was 81.2%. Further, the IC50 amounted to 0.867 µM in [7] and 1.79 µM in series [11].

A word on the T/C: it is the ratio of treated to control. A word on the IC50: it is the concentration at which inhibition is half-maximal. Low values mean inhibition by little substance, high ones a need for much substance.
